ChEMBL document CHEMBL3400118, “New approaches to the synthesis of sildenafil analogues and their enzyme inhibitory activity” (Bioorg Med Chem, 2015)
pIC50, pKi: −log10 of the molar value.

What was measured:
MCF7 = test: Cytotoxicity against human MCF7 cells after 72 hrs using Calcein AM by fluorescence assay; type: functional, cell-based; conditions: MCF7, 72 h
K562 = test: Cytotoxicity against human K562 cells after 72 hrs using Calcein AM by fluorescence assay; type: functional, cell-based; conditions: K562, 72 h
[1] = target: Cyclin-dependent kinase 2/cyclin E1 (Homo sapiens, UniProt P24941); test: Inhibition of CDK2/Cyclin E (unknown origin) using histone H1 as substrate by [gamma-33P]ATP assay; type: protein-complex assay
[2] = target: Tyrosine-protein kinase ABL1 (Homo sapiens, UniProt P00519); test: Inhibition of Abl (unknown origin) using GGEAIYAAPFKK peptide as substrate by [gamma-33P]ATP assay
Tyrosine-protein kinase ABL1, sequence (P00519 whole entry): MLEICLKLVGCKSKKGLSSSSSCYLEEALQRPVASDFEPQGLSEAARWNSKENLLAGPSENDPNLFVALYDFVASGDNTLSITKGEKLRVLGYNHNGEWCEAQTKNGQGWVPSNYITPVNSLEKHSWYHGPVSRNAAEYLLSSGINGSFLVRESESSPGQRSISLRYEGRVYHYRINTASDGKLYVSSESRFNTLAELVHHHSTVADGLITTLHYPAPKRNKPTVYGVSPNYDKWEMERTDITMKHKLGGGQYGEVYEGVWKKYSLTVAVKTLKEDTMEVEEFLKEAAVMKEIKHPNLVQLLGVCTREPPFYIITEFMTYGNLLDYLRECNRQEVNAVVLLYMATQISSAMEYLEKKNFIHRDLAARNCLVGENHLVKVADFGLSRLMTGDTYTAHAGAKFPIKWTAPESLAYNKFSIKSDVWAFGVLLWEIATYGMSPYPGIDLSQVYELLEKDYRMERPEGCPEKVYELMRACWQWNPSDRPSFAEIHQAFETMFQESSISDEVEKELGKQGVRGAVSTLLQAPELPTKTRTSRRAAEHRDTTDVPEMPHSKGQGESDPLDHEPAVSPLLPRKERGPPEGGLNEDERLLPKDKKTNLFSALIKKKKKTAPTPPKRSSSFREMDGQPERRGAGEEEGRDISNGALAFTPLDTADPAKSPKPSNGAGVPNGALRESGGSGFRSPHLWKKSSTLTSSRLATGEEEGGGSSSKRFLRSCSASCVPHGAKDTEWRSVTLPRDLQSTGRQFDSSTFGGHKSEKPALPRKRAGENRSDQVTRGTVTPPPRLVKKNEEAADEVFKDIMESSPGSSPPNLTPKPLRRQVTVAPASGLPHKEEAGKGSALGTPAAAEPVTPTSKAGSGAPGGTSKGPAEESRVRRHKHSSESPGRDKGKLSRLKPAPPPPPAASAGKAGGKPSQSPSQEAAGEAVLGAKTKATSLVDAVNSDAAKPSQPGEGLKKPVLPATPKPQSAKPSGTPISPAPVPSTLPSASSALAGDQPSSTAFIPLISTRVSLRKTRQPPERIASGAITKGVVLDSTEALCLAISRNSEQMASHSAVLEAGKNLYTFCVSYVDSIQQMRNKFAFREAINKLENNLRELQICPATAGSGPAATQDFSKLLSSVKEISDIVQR

Carbonic anhydrase 1 = Carbonic anhydrase 1 (Homo sapiens, UniProt P00915); test: Inhibition of human carbonic anhydrase 1 preincubated for 15 mins by CO2 hydration assay
Carbonic anhydrase 1, sequence (P00915 whole entry): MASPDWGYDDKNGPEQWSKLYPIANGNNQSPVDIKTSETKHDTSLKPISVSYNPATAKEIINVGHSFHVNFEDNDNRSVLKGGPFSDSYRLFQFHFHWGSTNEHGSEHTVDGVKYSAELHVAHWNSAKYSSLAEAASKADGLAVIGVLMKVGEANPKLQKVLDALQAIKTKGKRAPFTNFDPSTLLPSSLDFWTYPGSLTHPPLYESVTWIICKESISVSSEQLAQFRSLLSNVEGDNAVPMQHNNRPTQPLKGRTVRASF

Carbonic anhydrase 2 = Carbonic anhydrase 2 (Homo sapiens, UniProt P00918); test: Inhibition of human carbonic anhydrase 2 preincubated for 15 mins by CO2 hydration assay
Carbonic anhydrase 9 = Carbonic anhydrase 9 (Homo sapiens, UniProt Q16790); test: Inhibition of human carbonic anhydrase 9 preincubated for 15 mins by CO2 hydration assay
Carbonic anhydrase 12 = Carbonic anhydrase 12 (Homo sapiens, UniProt O43570); test: Inhibition of human carbonic anhydrase 12 preincubated for 15 mins by CO2 hydration assay
Carbonic anhydrase 12, sequence (O43570 whole entry): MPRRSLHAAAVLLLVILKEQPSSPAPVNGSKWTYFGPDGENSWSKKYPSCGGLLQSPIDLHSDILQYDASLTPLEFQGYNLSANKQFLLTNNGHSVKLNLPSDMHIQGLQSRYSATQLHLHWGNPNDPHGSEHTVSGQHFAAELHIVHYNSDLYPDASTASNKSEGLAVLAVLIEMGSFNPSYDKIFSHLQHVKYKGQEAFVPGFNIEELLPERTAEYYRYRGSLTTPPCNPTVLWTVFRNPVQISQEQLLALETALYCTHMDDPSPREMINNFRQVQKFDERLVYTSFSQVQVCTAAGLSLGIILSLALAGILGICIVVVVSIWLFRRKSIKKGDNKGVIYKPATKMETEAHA

Compound	pIC50 (MCF7)	pIC50 (K562)	pIC50 [1]	pIC50 [2]	pKi (Carbonic anhydrase 1)	pKi (Carbonic anhydrase 2)	pKi (Carbonic anhydrase 9)	pKi (Carbonic anhydrase 12)
CCOc1ccc(S(=O)(=O)N2CCN(C)CC2)cc1-c1nnc2c(n1)c(C)nn2C	< 4.60	< 4.60	< 4.30	< 4.30	< 5.00	< 5.00	7.42	6.20
CCOc1ccc(S(=O)(=O)NCCO)cc1-c1nnc2c(n1)c(C)nn2C	< 4.60	< 4.60	< 4.30	< 4.30	< 5.00	< 5.00	7.42	8.14
CCOc1ccc(S(=O)(=O)N2CCCCC2)cc1-c1nnc2c(n1)c(C)nn2C	< 4.60	< 4.60	< 4.60	< 4.60	< 5.00	< 5.00	7.55	6.24
Cc1ccc(NC(=O)c2ccc(CN3CCN(C)CC3)cc2)cc1Nc1nccc(-c2cccnc2)n1 [IMATINIB]	< 5.00	–	–	–	–	–	–	–
CCOc1ccc(S(=O)(=O)N(CC)CC)cc1-c1nnc2c(n1)c(C)nn2C	< 4.60	< 4.60	< 4.30	< 4.30	< 5.00	< 5.00	7.37	6.55
CCCc1nn(C)c2nnc(-c3cc(S(=O)(=O)N4CCNCC4)ccc3OCC)nc12	–	–	–	–	< 5.00	< 5.00	7.41	8.42
CCOc1ccc(S(=O)(=O)N2CCCC2)cc1-c1nnc2c(n1)c(C)nn2C	< 4.60	< 4.60	< 4.30	< 4.30	< 5.00	< 5.00	7.39	6.22
CCOc1ccc(S(=O)(=O)N2CCNCC2)cc1-c1nnc2c(n1)c(C)nn2C	< 4.60	< 4.60	< 4.30	< 4.30	< 5.00	< 5.00	7.40	6.21
CCOc1ccc(S(=O)(=O)N2CCOCC2)cc1-c1nnc2c(n1)c(C)nn2C	< 4.60	< 4.60	< 4.30	< 4.30	< 5.00	< 5.00	7.61	7.52
CCOc1ccc(S(=O)(=O)NCCN)cc1-c1nnc2c(n1)c(C)nn2C	< 4.60	< 4.60	< 4.30	< 4.30	< 5.00	< 5.00	7.48	7.24
CCOc1ccc(S(N)(=O)=O)cc1-c1nnc2c(n1)c(C)nn2C	–	–	–	–	5.17	6.37	7.50	8.26
CCOc1ccc(S(=O)(=O)N2CCCNCC2)cc1-c1nnc2c(n1)c(C)nn2C	< 4.60	< 4.60	4.35	5.23	< 5.00	< 5.00	7.51	6.18
CCOc1ccc(S(=O)(=O)NCCN2CCOCC2)cc1-c1nnc2c(n1)c(C)nn2C	< 4.60	< 4.60	< 4.30	< 4.30	< 5.00	< 5.00	7.40	7.23
CCOc1ccc(S(=O)(=O)NC(C)(C)CO)cc1-c1nnc2c(n1)c(C)nn2C	< 4.00	< 4.00	< 4.00	< 4.00	< 5.00	< 5.00	7.50	6.22
CCCc1nn(C)c2nnc(-c3cc(S(=O)(=O)N4CCN(C)CC4)ccc3OCC)nc12	< 4.60	< 4.60	< 4.60	< 4.30	< 5.00	< 5.00	7.81	6.20
CCOc1ccc(S(=O)(=O)NC(C)(CO)CO)cc1-c1nnc2c(n1)c(C)nn2C	< 4.00	< 4.00	< 4.00	< 4.00	< 5.00	< 5.00	7.49	7.39
